In ChEMBL document CHEMBL3885861, “Open TG-GATES”:

Organism: Rattus norvegicus
Assay: Open TG-GATES - Regimen: Daily Repeat
Format: toxicity, organism-based, Sprague-Dawley
Set-up: regimen Daily Repeat, gender Male, age 6 weeks
Conditions: in vivo, po, 300 mg/kg, route gavage, dose level Low; for Bas / Eos / Hb / Ht / Lym / MCH / MCHC / MCV / Mono / Neu / Plat / RBC / Ret / WBC: tissue Blood; for KIDNEY_L / KIDNEY_R / KIDNEY_TOTAL: tissue Kidney; for LIVER: tissue Liver; for A/G / ALP / ALT / AST / BUN / CRE / Ca / Cl / DBIL / GLC / IP / K / LDH / Na / PL / RALB / TBIL / TC / TG / TP / gamma-GTP: tissue Plasma

Work on CC(N)=O [ACETAMIDE] yielded a TERMINAL_BW (72 h, time 3 day) of 239.9 g, a Bas (72 h, time 3 day) of 0% and an Eos (72 h, time 3 day) of 0.8%. The Hb (72 h, time 3 day) was 12.4 g/dL, the Ht (72 h, time 3 day) was 38.3% and the Lym (72 h, time 3 day) was 75.8%. The MCH (72 h, time 3 day) was 20.5 pg, the MCHC (72 h, time 3 day) was 32.5% and the MCV (72 h, time 3 day) was 63 fL. It also gave a Mono (72 h, time 3 day) of 3.4%, a Neu (72 h, time 3 day) of 19.4% and a Plat (72 h, time 3 day) of 135.2 x10_4/uL. It also gave an RBC (72 h, time 3 day) of 608.2 x10_4/ul, a Ret (72 h, time 3 day) of 8.2% and a WBC (72 h, time 3 day) of 104.5 x10_2/uL. The KIDNEY_L (72 h, time 3 day) was 1 g, the KIDNEY_R (72 h, time 3 day) was 1 g and the KIDNEY_TOTAL (72 h, time 3 day) was 2.1 g. The LIVER (72 h, time 3 day) was 11.3 g, the A/G (72 h, time 3 day) was 1 and the ALP (72 h, time 3 day) was 2008.8 IU/L. For the same molecule, the ALT (72 h, time 3 day) was 36.4 IU/L, the AST (72 h, time 3 day) was 65.4 IU/L and the BUN (72 h, time 3 day) was 17.6 mg/dL. The CRE (72 h, time 3 day) was 0.1 mg/dL, the Ca (72 h, time 3 day) was 10.8 mg/dL and the Cl (72 h, time 3 day) was 103.4 meq/L. The DBIL (72 h, time 3 day) was 0.002 mg/dL, the GLC (72 h, time 3 day) was 184.6 mg/dL and the IP (72 h, time 3 day) was 6.6 mg/dL. The K (72 h, time 3 day) was 4.5 meq/L, the LDH (72 h, time 3 day) was 138.4 IU/L and the Na (72 h, time 3 day) was 139.5 meq/L. The PL (72 h, time 3 day) was 157.2 mg/dL, the RALB (72 h, time 3 day) was 2.8 g/dL and the TBIL (72 h, time 3 day) was 0.006 mg/dL. For the same molecule, the TC (72 h, time 3 day) was 80.4 mg/dL, the TG (72 h, time 3 day) was 137.5 mg/dL and the TP (72 h, time 3 day) was 5.5 g/dL. The gamma-GTP (72 h, time 3 day) was 0.8 IU/L, the TERMINAL_BW ([…], time 7 day) was 271.7 g and the TERMINAL_BW ([…], time 14 day) was 327.7 g. For the same molecule, the TERMINAL_BW ([…], time 28 day) was 432.9 g, the Bas ([…], time 7 day) was 0% and the Eos ([…], time 7 day) was 0.8%. For the same molecule, the Hb ([…], time 7 day) was 12.5 g/dL, the Ht ([…], time 7 day) was 38.3% and the Lym ([…], time 7 day) was 76.4%. The MCH ([…], time 7 day) was 19.8 pg, the MCHC ([…], time 7 day) was 32.7% and the MCV ([…], time 7 day) was 60.6 fL. It also gave a Mono ([…], time 7 day) of 3.4%, a Neu ([…], time 7 day) of 18.4% and a Plat ([…], time 7 day) of 115.7 x10_4/uL. For the same molecule, the RBC ([…], time 7 day) was 631.6 x10_4/ul, the Ret ([…], time 7 day) was 6.4% and the WBC ([…], time 7 day) was 120.4 x10_2/uL. It also gave a Bas ([…], time 14 day) of 0%, an Eos ([…], time 14 day) of 1% and a Hb ([…], time 14 day) of 13.2 g/dL. The Ht ([…], time 14 day) was 39.9%, the Lym ([…], time 14 day) was 76.8% and the MCH ([…], time 14 day) was 19.6 pg. For the same molecule, the MCHC ([…], time 14 day) was 33.2%, the MCV ([…], time 14 day) was 59.2 fL and the Mono ([…], time 14 day) was 2.8%. The Neu ([…], time 14 day) was 19%, the Plat ([…], time 14 day) was 105.9 x10_4/uL and the RBC ([…], time 14 day) was 674.2 x10_4/ul. The Ret ([…], time 14 day) was 4.8%, the WBC ([…], time 14 day) was 126.4 x10_2/uL and the Bas ([…], time 28 day) was 0%. For the same molecule, the Eos ([…], time 28 day) was 1%, the Hb ([…], time 28 day) was 14.1 g/dL and the Ht ([…], time 28 day) was 42.1%. The Lym ([…], time 28 day) was 77.8%, the MCH ([…], time 28 day) was 19.1 pg and the MCHC ([…], time 28 day) was 33.5%. For the same molecule, the MCV ([…], time 28 day) was 57.1 fL, the Mono ([…], time 28 day) was 2.4% and the Neu ([…], time 28 day) was 17.8%. The Plat ([…], time 28 day) was 111 x10_4/uL, the RBC ([…], time 28 day) was 737.8 x10_4/ul and the Ret ([…], time 28 day) was 3.2%. It also gave a WBC ([…], time 28 day) of 165 x10_2/uL, a KIDNEY_L ([…], time 7 day) of 1.1 g and a KIDNEY_R ([…], time 7 day) of 1.1 g. It also gave a KIDNEY_TOTAL ([…], time 7 day) of 2.2 g, a KIDNEY_L ([…], time 14 day) of 1.3 g and a KIDNEY_R ([…], time 14 day) of 1.3 g. For the same molecule, the KIDNEY_TOTAL ([…], time 14 day) was 2.6 g, the KIDNEY_L ([…], time 28 day) was 1.5 g and the KIDNEY_R ([…], time 28 day) was 1.5 g. For the same molecule, the KIDNEY_TOTAL ([…], time 28 day) was 3 g, the LIVER ([…], time 7 day) was 12.8 g and the LIVER ([…], time 14 day) was 14.1 g. It also gave an LIVER ([…], time 28 day) of 17.3 g, an A/G ([…], time 7 day) of 0.9 and an ALP ([…], time 7 day) of 1504 IU/L. It also gave an ALT ([…], time 7 day) of 39.4 IU/L, an AST ([…], time 7 day) of 73.4 IU/L and a BUN ([…], time 7 day) of 19.4 mg/dL. For the same molecule, the CRE ([…], time 7 day) was 0.2 mg/dL, the Ca ([…], time 7 day) was 10.5 mg/dL and the Cl ([…], time 7 day) was 104.1 meq/L. The DBIL ([…], time 7 day) was 0 mg/dL, the GLC ([…], time 7 day) was 187.4 mg/dL and the IP ([…], time 7 day) was 6.3 mg/dL. It also gave a K ([…], time 7 day) of 4.7 meq/L, an LDH ([…], time 7 day) of 205.8 IU/L and a Na ([…], time 7 day) of 141.3 meq/L. For the same molecule, the PL ([…], time 7 day) was 149.6 mg/dL, the RALB ([…], time 7 day) was 2.8 g/dL and the TBIL ([…], time 7 day) was 0 mg/dL. The TC ([…], time 7 day) was 72 mg/dL, the TG ([…], time 7 day) was 141.8 mg/dL and the TP ([…], time 7 day) was 5.8 g/dL. It also gave a gamma-GTP ([…], time 7 day) of 0.5 IU/L, an A/G ([…], time 14 day) of 0.9 and an ALP ([…], time 14 day) of 1341.2 IU/L. The ALT ([…], time 14 day) was 34.4 IU/L, the AST ([…], time 14 day) was 68.6 IU/L and the BUN ([…], time 14 day) was 17.7 mg/dL. It also gave a CRE ([…], time 14 day) of 0.2 mg/dL, a Ca ([…], time 14 day) of 10.4 mg/dL and a Cl ([…], time 14 day) of 104.9 meq/L. It also gave a DBIL ([…], time 14 day) of 0 mg/dL, a GLC ([…], time 14 day) of 197.4 mg/dL and an IP ([…], time 14 day) of 6.3 mg/dL. It also gave a K ([…], time 14 day) of 4.4 meq/L, an LDH ([…], time 14 day) of 244 IU/L and a Na ([…], time 14 day) of 141.1 meq/L. It also gave a PL ([…], time 14 day) of 147.4 mg/dL, an RALB ([…], time 14 day) of 2.8 g/dL and a TBIL ([…], time 14 day) of 0.002 mg/dL. The TC ([…], time 14 day) was 71.2 mg/dL, the TG ([…], time 14 day) was 132 mg/dL and the TP ([…], time 14 day) was 5.8 g/dL. It also gave a gamma-GTP ([…], time 14 day) of 0.7 IU/L, an A/G ([…], time 28 day) of 0.9 and an ALP ([…], time 28 day) of 1160.4 IU/L. The ALT ([…], time 28 day) was 41.2 IU/L, the AST ([…], time 28 day) was 75.8 IU/L and the BUN ([…], time 28 day) was 20.1 mg/dL. For the same molecule, the CRE ([…], time 28 day) was 0.2 mg/dL, the Ca ([…], time 28 day) was 10.5 mg/dL and the Cl ([…], time 28 day) was 104.1 meq/L. For the same molecule, the DBIL ([…], time 28 day) was 0.004 mg/dL, the GLC ([…], time 28 day) was 211.2 mg/dL and the IP ([…], time 28 day) was 6.3 mg/dL. It also gave a K ([…], time 28 day) of 4.3 meq/L, an LDH ([…], time 28 day) of 256 IU/L and a Na ([…], time 28 day) of 141.8 meq/L. It also gave a PL ([…], time 28 day) of 158.6 mg/dL, an RALB ([…], time 28 day) of 2.8 g/dL and a TBIL ([…], time 28 day) of 0 mg/dL. It also gave a TC ([…], time 28 day) of 77 mg/dL, a TG ([…], time 28 day) of 175.1 mg/dL and a TP ([…], time 28 day) of 6 g/dL. It also gave a gamma-GTP ([…], time 28 day) of 0.9 IU/L.
